Reference: ChEMBL document CHEMBL3137667, “[Drug-induced liver injury; fourteenth updated edition of the bibliographic database of liver injuries and related drugs]” (Gastroenterol Clin Biol, 2004)

Tests used:
[1] = Highest frequency of moderate liver toxicity observed during clinical trials, expressed as a percentage. [column '% BIOL' in source]; conditions: human
[2] = Highest frequency of acute liver toxicity observed during clinical trials, expressed as a percentage. [column '% AIGUE' in source]; conditions: human
[3] = Comments (NB not yet translated). [column 'COMMENTAIRES' in source]; conditions: human
[4] = Times to onset, minimal and maximal, observed in the indexed observations. [column 'DELAI' in source]; conditions: human
[5] = Proposed mechanism(s) of liver damage. [column 'MEC' in source]; conditions: human
[6] = human, serum
[7] = human, serum; remark: listed apart in the source
[8] = human
[9] = human; remark: listed apart in the source
[10] = human; remark: listed apart in the source
[11] = human, serum, 4383 h
[12] = human; remark: listed apart in the source
[13] = human; remark: listed apart in the source
[14] = human; remark: listed apart in the source
[15] = human; remark: listed apart in the source
[16] = human; remark: listed apart in the source
[17] = human; remark: listed apart in the source
[18] = human; remark: listed apart in the source
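Throughout, for Hepatotoxicity (association with vascular disease): count of indexed literature references reporting vascular liver injury in humans, e.g. peliosis hepatitis, hepatic veno-occlusive disease or Budd-Chiari syndrome.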
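Throughout, for Hepatotoxicity (benign tumour): value is a count of indexed literature references citing a benign tumour confirmed by histopathology.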
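Throughout, for Hepatotoxicity (choleostasis): human cholestatic liver injury, shown by histopathology or by peak ALT or AST elevation over alkaline phosphatase ratio below 2, value counts indexed literature reports.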
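Throughout, for Hepatotoxicity (chronic liver disease): chronic liver injury confirmed by histopathology or persistently raised serum aminotransferase activity beyond 6 months, value given as the count of indexed literature references.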
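Throughout, for Hepatotoxicity (cirrhosis): value is a count of indexed literature references reporting cirrhosis confirmed by histopathology.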
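Throughout, for Hepatotoxicity (cytolytic): human cytolytic liver injury, shown by histopathology or by a ratio above 5 of peak ALT or AST elevation to alkaline phosphatase elevation, value counts indexed references.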
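Throughout, for Hepatotoxicity (granulomatous hepatitis): value is a count of indexed literature references reporting granulomatous liver disease confirmed by histopathology.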
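Throughout, for Hepatotoxicity (malignant tumour): malignant tumour confirmed by histopathology, value gives the count of indexed literature references reporting it.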
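Throughout, for Hepatotoxicity (severe hepatitis): human clinical data: severe hepatitis, meaning potentially life-threatening liver failure or clinically observed cases, the value counts how many indexed literature references report it.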
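Throughout, for Hepatotoxicity (steatosis): steatosis confirmed by histopathology, value is the count of indexed references.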

Structure (SMILES)	Hepatotoxicity (comment) [3]	Hepatotoxicity (time to onset) [4]	Hepatotoxicity (mechanism) [5]	Hepatotoxicity (moderate) [6]	Hepatotoxicity (acute) [7]	Hepatotoxicity (cytolytic) [8]	Hepatotoxicity (choleostasis) [9]	Hepatotoxicity (chronic liver disease) [11]	Hepatotoxicity (cirrhosis) [12]	Hepatotoxicity (granulomatous hepatitis) [13]	Hepatotoxicity (association with vascular disease) [14]	Hepatotoxicity (steatosis) [15]	Hepatotoxicity (malignant tumour) [16]	Hepatotoxicity (benign tumour) [17]	Hepatotoxicity (animal toxicity known) [18]	Hepatotoxicity (moderate) [1] [%]	Hepatotoxicity (acute) [2] [%]	Hepatotoxicity (severe hepatitis) [10]	also measured
O=C(O)c1cn(C2CC2)c2cc(N3CCNCC3)c(F)cc2c1=O [CIPROFLOXACIN]	DUCTOPENIE AC_ANTI-N/-ADN	2 days - 6 months	Allergic, Dose-dependant	114	21	7	12	1	0	0	0	1	0	0	yes				Hepatotoxicity (moderate) ([1]; Liver): 46.4%; Hepatotoxicity (acute) ([2]; Liver): 0.2%; Hepatotoxicity (severe hepatitis) ([10]; Liver): 5
CO/N=C(\C(=O)N[C@@H]1C(=O)N2C(C(=O)O)=C(CSc3nc(=O)c(=O)[nH]n3C)CS[C@H]12)c1csc(N)n1 [CEFTRIAXONE]	PSEUDOLITHIASE	2 days - 25 days	Dose-dependant	71	7	3	2	0	0	0	0	0	0	0	yes	30	4.6	0	
CC1=C(/C=C/C(C)=C/C=C/C(C)=C/CO)C(C)(C)CCC1 [RETINOL]	I/ALCOOL	11 days - 17.5 years		8	0			26	22		10	22	0	0	yes				Hepatotoxicity (moderate) ([1]; Liver): 33%; Hepatotoxicity (acute) ([2]; Liver): 0%; Hepatotoxicity (mechanism) ([5]; Liver): Dose-dependant; Hepatotoxicity (cytolytic) ([8]; Liver): 0; Hepatotoxicity (choleostasis) ([9]; Liver): 0; Hepatotoxicity (severe hepatitis) ([10]; Liver): 1; Hepatotoxicity (granulomatous hepatitis) ([13]; Liver): 0
O=c1[nH]cc(F)c(=O)[nH]1 [FLUOROURACIL]	CHOLANGITE/IAH I/LEVAMISOLE	1 month - 1 year	Dose-dependant, Toxic Metabolite	15	4	2	1	0	1	0	1	4	0	0	yes	61.2	25	2	
CN(C/C=C/C#CC(C)(C)C)Cc1cccc2ccccc12 [TERBINAFINE]	CHOLANGITE DUCTOPENIE CHOLESTASE_PROLONGEE	1 week - 6 months	Reactive metabolite	21	23	7	15	1	0	0	1	0	0	0	yes	36.7	0	3	
CC(=O)[C@@]1(O)CC[C@H]2[C@@H]3C=C(Cl)C4=CC(=O)[C@@H]5C[C@@H]5[C@]4(C)[C@H]3CC[C@@]21C [CYPROTERONE]	AC_ANTI-N/pCN	4 days - 10 years	Dose-dependant	4	21	20	3	1	1	0	0	0	5	1	yes	20	13	13	
CC1(C)S[C@@H]2[C@H](NC(=O)Cc3ccccc3)C(=O)N2[C@H]1C(=O)O [PENICILLIN G]	CHOLESTASE_PROLONGEE CHOLANGITE AC_ANTI-N	0.5 hour - 18 days	Allergic	9	17	5	9	1	0	3	0	0	0	0	yes	13.2	0	1	
CC(=O)Oc1ccccc1C(=O)O [ASPIRIN]	#S.REYE	1 week - 5 years	Dose-dependant, Reactive metabolite	30	31	26	2	5	1	3	0	0	0	0	yes	66	0	6	
FC(F)OC(F)C(F)(F)F (configuration not stated)	AC_ANTI-TFA	1 day - 12 days	Reactive metabolite, Allergic	2	4	4	0	0	0	0	0	0	0	0	yes	11.1	0	3	
